Experimental findings from patent publication US20100093777A1 (Takeda Pharmaceutical Company Limited, priority 2007, published 2010) are described below.

A word on the IC50: it is the point on the concentration scale where inhibition reaches its midpoint.

For one experiment, the target named is T1, Human ACC1 (Homo sapiens, UniProt Q13085).
T1 construct: His tag (from the pFAST-BacHTc vector); own knowledge: N-terminal 6xHis with TEV site; made in house; host or cells: SF-9 insect cells, recombinant baculovirus BAC-ACC1
The experiment is described as follows: Measurement of ACC1 inhibitory activity (recombinant enzyme, malachite green absorbance). The conditions noted are these: recombinant human ACC1 8 μg/ml; 30° C.; 200 μM ATP, 200 μM Acetyl-CoA; absorbance 620 nm. Type of experiment: biochemical. As for the experimental part: The ACC1 inhibitory action of the compound of the present invention was evaluated by the following method.
Human ACC1 gene was cloned by PCR using a human liver cDNA library (Clontech) as a template and Primer 1 and Primer 2 shown below. Primer 1 and Primer 2 were prepared by adding SalI, NotI restriction enzyme recognition sequence based on the information of the base sequence (Genbank Accession U19822) of human ACC1 gene.
PCR was performed using a Pyrobest DNA polymerase (TAKARA BIO INC.) The obtained PCR product was cloned to pT7 Blue vector (Novagen) and, after confirmation of the base sequence, digested with restriction enzymes SalI and NotI. The obtained DNA fragment was inserted to pFAST-BacHTc (Invitrogen) digested with restriction enzymes SalI and NotI to give expression plasmid ACC1/pFAST-BacHTc.
Using the expression plasmid and BAC-TO-BAC Baculovirus Expression System (Invitrogen), virus stock BAC-ACC1 of recombinant Baculovirus was prepared.
SF-9 cells (Invitrogen) were inoculated to a medium (1 L) for insect cells (Sf-900IISFM medium (Invitrogen) containing 10% fetal bovine serum (Trace), 50 mg/L Gentamicin (Invitrogen) and 0.1% Pluronic F-68 (Invitrogen)) at 1×10^6 cells/mL, and cultured with shaking at 27° C., 100 rpm in a 2 L Erlenmeyer flask.
After 24 hr of the culture, recombinant Baculovirus BAC-ACC1 (10 mL) was added, and the cells were further cultured for 3 days. The culture medium was centrifuged at 1000×g for 5 min to give virus-infected cells. The cells were washed with phosphate buffered saline (Invitrogen), and centrifuged under the same conditions, and the obtained cells were cryopreserved at −80° C.
The cryopreserved cells were thawed in ice and suspended in 100 mL of 25 mM HEPES buffer (pH 7.5) containing 10% Glycerol, 0.13 M NaCl, 1 mM EDTA, 25 mM Sodium β-Glycerophosphate and 1 mM Sodium Orthovanadate, and supplemented with Complete Protease Inhibitor (Nippon Boehringer Ingelheim Co., Ltd.). The obtained suspension was homogenized 3 times in a polytron homogenizer (Kinematica) at 20,000 rpm for 30 sec. The obtained cell disruption solution was clarified by centrifugation at 185700×g for 50 min, and filtered through a 0.45 μm filter. The filtrate was passed through a column packed with 12 mL of Ni-NTA Super Flow Gel (QUIAGEN) at a flow rate of about 5 mL/min. The column was washed with buffer A (50 mM HEPES (pH 7.5) containing 0.3 M NaCl), further washed with buffer A containing 20 mM Imidazole, and eluted with buffer A containing 100 mM Imidazole. The eluate was concentrated with Vivaspin 20 (Vivascience) with a molecular weight cut off of 30K. The obtained concentrate was dialyzed against Sephadex G-25 (Amersham Biosciences, 358 ml) equilibrated with 50 mM HEPES (pH 7.5) containing 10 mM MgCl2, 2 mM Dithiothreitol, 10 mM Tripotassium Citrate and 0.3 M NaCl. The inner dialysate was concentrated with Vivaspin 20 (Vivascience) with a molecular weight cut off of 30K, and the concentrate was filtered through a 0.22 μm filter to give ACC1. The obtained ACC1 was cryopreserved at −80° C.
ACC1 (0.93 mg/ml) obtained in the above-mentioned (2) was diluted with an enzyme reaction buffer (50 mM HEPES (pH 7.5), 10 mM MgCl2, 10 mM Tripotassium Citrate, 2 mM Dithiothreitol, 0.75 mg/ml Fatty acid free BSA) to concentration of 8 μg/ml, and the mixture was added to each well of 384 well assay plate (Nunc 265196) by 10 μl.
Thereafter, ACC1 inhibitory rate (%) was measured in the same manner as in the below-mentioned Experimental Example 2-(3), and IC50 value was calculated.
ACC2 (Nd) (1.1 mg/ml) obtained in the above-mentioned (2) was diluted with an enzyme reaction buffer (50 mM HEPES (pH 7.5), 10 mM MgCl2, 10 mM Tripotassium Citrate, 2 mM Dithiothreitol, 0.75 mg/ml Fatty acid free BSA) to a concentration of 6.4 μg/ml, and the mixture was added to each well of a 384 well assay plate (Nunc 265196) by 10 μl. […]

For experiment [1], the target named is T2, Human ACC2 (Nd, N terminal deleted) (Homo sapiens, UniProt O00763).
T2 construct: His tag (from the pFAST-BacHTa vector); own knowledge: N-terminal 6xHis with TEV site; made in house; host or cells: SF-9 insect cells, recombinant baculovirus BAC-ACC2 (Nd)
The experiment is described as follows: Measurement of ACC2 inhibitory activity (recombinant ACC2 (Nd), malachite green absorbance). The note with it: recombinant human ACC2 (Nd) 6.4 μg/ml; 30° C.; 200 μM ATP, 200 μM Acetyl-CoA; absorbance 620 nm. Type of experiment: biochemical. The method, then: The ACC2 inhibitory action of the compound of the present invention was evaluated by the following method.
Human ACC2 gene was cloned by PCR using a human skeletal muscle cDNA library (Clontech) as a template and Primer 1 and Primer 2 shown below. Primer 1 and Primer 2 were prepared by adding SalI, XbaI restriction enzyme recognition sequences based on the information of the base sequence (Genbank Accession U89344) of human ACC2 gene.
PCR was performed using Pyrobest DNA polymerase (TAKARA BIO INC.). The obtained PCR product was cloned to pT7 Blue vector (Novagen) and, after confirmation of the base sequence, digested with restriction enzymes SalI and XbaI. The obtained DNA fragment was inserted into pFAST-BacHTa (Invitrogen) digested with restriction enzymes SalI and XbaI to give expression plasmid ACC2/pFAST-BacHTa.
PCR was performed using the expression plasmid as a template and Primer 3 and Primer 4 shown below to prepare a plasmid to be used for expression of ACC2 free of mitochondrial targeting sequence.
PCR was performed using Pyrobest-DNA polymerase (TAKARA BIO INC.). The obtained PCR product was cloned to pT7 Blue vector (Novagen) and, after confirmation of the base sequence, digested with restriction enzymes SalI and AflII. The obtained DNA fragment was inserted into pFAST-BacHTa (Invitrogen) digested with restriction enzymes SalI and AflII to give expression plasmid ACC2mito7/pFAST-BacHTa.
Using the expression plasmid and BAC-TO-BAC Baculovirus Expression System (Invitrogen), virus stock BAC-ACC2 (N terminal deleted (hereinafter Nd)) of recombinant Baculovirus was prepared.
SF-9 cells (Invitrogen) were inoculated to a medium (2 L) for insect cells (Sf-900IISFM medium (Invitrogen) containing 10% fetal bovine serum (Trace), 50 mg/L Gentamicin (Invitrogen), 0.1% Pluronic F-68 (Invitrogen)) at 0.5×10^6 cells/mL, and cultured with shaking in Wave Bioreactor (Wave) at 27° C., 20 rpm, rocking angle […], oxygen concentration 30%.
On day 4 of the culture, 3 L of the medium for insect cells was added, the rocking angle was set to 8°, and the cells were cultured. On day 5 of the culture, 100 mL of recombinant Baculovirus BAC-ACC2 (Nd) was added, 5 L of the medium for insect cells was further added, the rocking angle was set to 11°, and the cells were cultured for 3 days. The culture medium was centrifuged at 1000×g for 10 min to give virus-infected cells. The cells were washed with phosphate buffered saline (Invitrogen) and centrifuged under the same conditions. The obtained cells were cryopreserved at −80° C.
The cryopreserved cells were thawed in ice and suspended in 900 mL of 25 mM HEPES buffer (pH 7.5) containing 10% Glycerol, 0.13 M NaCl, 1 mM EDTA, 25 mM Sodium βGlycerophosphate and 1 mM Sodium Orthovanadate, and supplemented with Complete Protease Inhibitor (Nippon Boehringer Ingelheim Co., Ltd.). The obtained suspension was homogenized 3 times in a polytron homogenizer (Kinematica) at 20,000 rpm for 30 sec. The obtained cell disruption solution was clarified by centrifugation at 31000×g for 60 min, and filtered through a 0.45 μm filter. The filtrate was passed through a column packed with 60 mL of Ni-NTA Super Flow Gel (QUIAGEN) at a flow rate of about 5 mL/min. The column was washed with buffer A (50 mM HEPES (pH 7.5) containing 0.3 M NaCl), further washed with buffer A containing 20 mM Imidazole, and eluted with buffer A containing 100 mM Imidazole. The eluate was concentrated with Vivaspin 20 (Vivascience) with a molecular weight cut off of 30K. The obtained concentrate was dialyzed against 50 mM HEPES (pH 7.5) containing 10 mM MgCl2, 2[…] Dithiothreitol, 10 mM Tripotassium Citrate and 0.3 M NaCl. The inner dialysate was filtered through a 0.22 μm filter to give ACC2 (Nd). The obtained ACC2 (Nd) was cryopreserved at −80° C.
A test compound was dissolved in dimethyl sulfoxide (DMSO) and the mixture was diluted with an enzyme reaction buffer and the resulting solution (5 μl) was added to each well.

T2 sequence (O00763 117-2458 limits assumed, stated change not applied): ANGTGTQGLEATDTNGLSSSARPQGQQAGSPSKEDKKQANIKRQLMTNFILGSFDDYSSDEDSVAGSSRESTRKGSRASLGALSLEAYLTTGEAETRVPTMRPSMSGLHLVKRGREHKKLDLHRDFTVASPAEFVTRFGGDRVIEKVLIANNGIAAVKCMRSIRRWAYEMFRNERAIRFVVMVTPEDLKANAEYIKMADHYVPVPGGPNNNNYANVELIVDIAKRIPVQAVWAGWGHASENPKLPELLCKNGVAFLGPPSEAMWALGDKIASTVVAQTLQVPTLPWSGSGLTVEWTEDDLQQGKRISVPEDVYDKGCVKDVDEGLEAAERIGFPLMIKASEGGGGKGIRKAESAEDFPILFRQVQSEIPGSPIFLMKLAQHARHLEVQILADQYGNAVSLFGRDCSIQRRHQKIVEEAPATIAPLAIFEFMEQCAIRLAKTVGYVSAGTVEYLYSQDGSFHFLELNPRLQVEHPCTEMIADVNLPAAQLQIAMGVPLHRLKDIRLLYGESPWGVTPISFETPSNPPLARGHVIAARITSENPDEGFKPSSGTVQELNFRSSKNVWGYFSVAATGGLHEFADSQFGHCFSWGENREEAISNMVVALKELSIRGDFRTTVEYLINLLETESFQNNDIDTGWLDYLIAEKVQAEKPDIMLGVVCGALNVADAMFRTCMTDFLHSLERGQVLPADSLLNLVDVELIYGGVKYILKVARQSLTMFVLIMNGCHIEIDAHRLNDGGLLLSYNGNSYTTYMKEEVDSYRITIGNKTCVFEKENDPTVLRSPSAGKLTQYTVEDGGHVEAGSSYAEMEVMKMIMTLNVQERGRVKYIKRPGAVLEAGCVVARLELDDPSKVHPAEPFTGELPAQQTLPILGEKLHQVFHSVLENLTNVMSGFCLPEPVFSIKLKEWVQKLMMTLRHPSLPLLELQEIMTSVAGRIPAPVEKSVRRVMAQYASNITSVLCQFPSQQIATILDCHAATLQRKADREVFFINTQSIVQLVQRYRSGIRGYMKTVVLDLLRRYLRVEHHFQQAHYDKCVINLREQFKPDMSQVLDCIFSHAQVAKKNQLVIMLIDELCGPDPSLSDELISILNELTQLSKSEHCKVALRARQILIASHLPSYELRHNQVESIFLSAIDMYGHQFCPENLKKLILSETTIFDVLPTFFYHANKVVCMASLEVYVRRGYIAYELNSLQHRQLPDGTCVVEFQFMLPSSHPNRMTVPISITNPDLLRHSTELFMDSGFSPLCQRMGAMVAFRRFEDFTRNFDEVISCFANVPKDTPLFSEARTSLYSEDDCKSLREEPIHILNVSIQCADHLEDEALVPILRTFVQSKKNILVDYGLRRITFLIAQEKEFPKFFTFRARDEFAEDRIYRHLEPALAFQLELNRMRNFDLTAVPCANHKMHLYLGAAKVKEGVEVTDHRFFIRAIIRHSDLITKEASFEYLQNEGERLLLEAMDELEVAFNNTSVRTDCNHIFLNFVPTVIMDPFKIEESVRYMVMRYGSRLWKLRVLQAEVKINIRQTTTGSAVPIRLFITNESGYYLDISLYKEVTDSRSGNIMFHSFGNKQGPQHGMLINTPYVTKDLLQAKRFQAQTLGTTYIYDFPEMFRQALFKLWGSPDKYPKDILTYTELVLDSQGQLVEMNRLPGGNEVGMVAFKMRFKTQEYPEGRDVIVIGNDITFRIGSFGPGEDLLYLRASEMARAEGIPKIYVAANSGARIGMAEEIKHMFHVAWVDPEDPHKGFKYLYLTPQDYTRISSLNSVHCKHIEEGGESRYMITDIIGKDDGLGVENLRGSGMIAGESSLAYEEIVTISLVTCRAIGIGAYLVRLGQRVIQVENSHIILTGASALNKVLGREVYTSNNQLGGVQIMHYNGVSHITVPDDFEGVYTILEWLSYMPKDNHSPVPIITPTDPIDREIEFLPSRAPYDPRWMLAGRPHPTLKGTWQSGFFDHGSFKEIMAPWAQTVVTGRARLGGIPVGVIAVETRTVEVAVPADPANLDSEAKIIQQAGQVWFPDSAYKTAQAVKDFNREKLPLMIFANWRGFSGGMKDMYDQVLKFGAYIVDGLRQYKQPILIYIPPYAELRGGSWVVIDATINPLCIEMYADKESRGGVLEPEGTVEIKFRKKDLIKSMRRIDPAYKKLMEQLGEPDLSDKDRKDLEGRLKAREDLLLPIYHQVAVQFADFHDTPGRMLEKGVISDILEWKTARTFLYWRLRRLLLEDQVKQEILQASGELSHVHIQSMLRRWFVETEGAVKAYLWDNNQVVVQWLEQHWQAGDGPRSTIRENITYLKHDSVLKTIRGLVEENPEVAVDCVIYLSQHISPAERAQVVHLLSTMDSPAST

Regarding `CNC(=O)Nc1sc2ncccc2c1C(=O)N1CCC(N2CCCC3(C2)CC(C)(C)OC3=O)CC1` (single isomer, unassigned) [Example 14, N-(3-{[4-(3,3-dimethyl-1-oxo-2-oxa-7-azaspiro[4.5]dec-7-yl)piperidin-1-yl]carbonyl}thieno[2,3-b]pyridin-2-yl)-N′-methylurea], the IC50 at Human ACC1 is 10 to 100 nM; in experiment [1], 1 to 10 nM.
As to `CNC(=O)Nc1sc2nc(C)ccc2c1C(=O)N1CCC(N2CCCC3(CC(=O)N(C(C)C)C3=O)C2)CC1` (single isomer, unassigned) [Example 18, N-(3-{[4-(2-isopropyl-1,3-dioxo-2,7-diazaspiro[4.5]dec-7-yl)piperidin-1-yl]carbonyl}-6-methylthieno[2,3-b]pyridin-2-yl)-N′-methylurea], the IC50 lay within 10 to 100 nM on Human ACC1 and 1 to 10 nM in experiment [1].
For `CCNC(=O)Nc1sc2nc(C)ccc2c1C(=O)N1CCC(N2CCCC3(CC(=O)N(C(C)C)C3=O)C2)CC1` (single isomer, unassigned) [Example 19, N-ethyl-N′-(3-{[4-(2-isopropyl-1,3-dioxo-2,7-diazaspiro[4.5]dec-7-yl)piperidin-1-yl]carbonyl}-6-methylthieno[2,3-b]pyridin-2-yl)urea], the IC50 on Human ACC1 is 10 to 100 nM.
With `CNC(=O)Nc1sc2nc(C)ccc2c1C(=O)N1CCC(N2CCCC3(C2)CC(C)(C)OC3=O)CC1` (single isomer, unassigned) [Example 27, N-(3-{[4-(3,3-dimethyl-1-oxo-2-oxa-7-azaspiro[4.5]dec-7-yl)piperidin-1-yl]carbonyl}-6-methylthieno[2,3-b]pyridin-2-yl)-N′-methylurea], the IC50 on Human ACC1 was in the range of 10 to 100 nM; in experiment [1], 1 to 10 nM.
For the compound `CCNC(=O)Nc1sc2nc(C)ccc2c1C(=O)N1CCC(N2CCCC3(C2)CC(C)(C)OC3=O)CC1` (single isomer, unassigned) [Example 28, N-(3-{[4-(3,3-dimethyl-1-oxo-2-oxa-7-azaspiro[4.5]dec-7-yl)piperidin-1-yl]carbonyl}-6-methylthieno[2,3-b]pyridin-2-yl)-N′-ethylurea], the IC50 at Human ACC1 was 10 to 100 nM; in experiment [1], 1 to 10 nM.
Consider `CCNC(=O)Nc1sc2nc(C)ccc2c1C(=O)N1CCC(N2CCCC3(CCN(C(C)C)C3=O)C2)CC1` (single isomer, unassigned) [Example 65, N-ethyl-N′-(3-{[4-(2-isopropyl-1-oxo-2,7-diazaspiro[4.5]dec-7-yl)piperidin-1-yl]carbonyl}-6-methylthieno[2,3-b]pyridin-2-yl)urea], for which the figures for the IC50 (on Human ACC1; in experiment [1]) were 10 to 100 nM and 1 to 10 nM, respectively.
For `CNC(=O)Nc1sc2ncccc2c1C(=O)N1CCC(N2CCCC3(C2)SC(=O)N(C(C)C)C3=O)CC1` (centres unmarked) [Example 11, N-(3-{[4-(3-isopropyl-2,4-dioxo-1-thia-3,7-diazaspiro[4.5]dec-7-yl)piperidin-1-yl]carbonyl}thieno[2,3-b]pyridin-2-yl)-N′-methylurea], the IC50 at Human ACC1 is 10 to 100 nM.
For the compound `CNC(=O)Nc1sc2nc(C)ccc2c1C(=O)N1CCC(N2CCCC3(C2)SC(=O)N(C(C)C)C3=O)CC1` (centres unmarked) [Example 31, N-(3-{[4-(3-isopropyl-2,4-dioxo-1-thia-3,7-diazaspiro[4.5]dec-7-yl)piperidin-1-yl]carbonyl}-6-methylthieno[2,3-b]pyridin-2-yl)-N′-methylurea], the IC50 at Human ACC1 was in the range of 10 to 100 nM.
On to `CCNC(=O)Nc1sc2nc(C)ccc2c1C(=O)N1CCC(N2CCCC3(C2)N=C(C)N(C(C)C)C3=O)CC1` (centres unmarked) [Example 52], for which, on Human ACC1, the half-maximal inhibitory concentration (IC50) lay within 10 to 100 nM.
Take `CNC(=O)Nc1sc2nc(C)c(C)cc2c1C(=O)N1CCC(N2CCCC3(C2)CC(C)(C)OC3=O)CC1` (centres unmarked) [Example 74]: in experiment [1], the IC50 was 1 to 10 nM.
Same read-out and setting: as for `CCNC(=O)Nc1sc2nc(C)c(C)cc2c1C(=O)N1CCC(N2CCCC3(C2)CC(C)(C)OC3=O)CC1` (centres unmarked) [Example 75], the figure is 1 to 10 nM.
As to `CCNC(=O)Nc1sc2nc(C(F)(F)F)ccc2c1C(=O)N1CCC(N2CCCC3(CC(=O)N(C(C)C)C3=O)C2)CC1` (centres unmarked) [Example 96, N-ethyl-N′-[3-{[4-(2-isopropyl-1,3-dioxo-2,7-diazaspiro[4.5]dec-7-yl)piperidin-1-yl]carbonyl}-6-(trifluoromethyl)thieno[2,3-b]pyridin-2-yl]urea], the IC50 on Human ACC1 lay in the range of 10 to 100 nM.
